The values that follow are results of earlier work, collected in publication PMC8513424 (Laryngoscope Investigative Otolaryngology, 2021).

In data set [1] the test system is isogenic VS‐ and meningioma‐related cell lines with or without NF2 expression. To be noted: among 19 small molecules; cited from earlier work.
For a further data set, the system named is meningiomas. The settings on record: cited from earlier work.

Regarding `Cc1[nH]c2ccccc2c1CCNCc1ccc(/C=C/C(=O)NO)cc1` [panobinostat], in data set [1], the “Activity across schwannoma and meningioma cell models” value is recorded as “greatest activity”.

bevacizumab: in the data set on meningiomas, the Response of meningiomas entry was “do not respond”. In the case of `COc1ccc(-c2nc(N3CCOCC3)c3sc(CN(C)c4ncc(C(=O)NO)cn4)cc3n2)cn1` [CUDC‐907], the “Activity across schwannoma and meningioma cell models” value in data set [1] is “greatest activity”.
